This is an account of results in patent US7524980B2, “Vitamin D3 lactam derivative” (Teijin Pharma Limited, priority 2003, dated 2009).

This experiment has as its system HL-60 cell. As to the kind of experiment: Vitamin D3 antagonist effect: suppression of HL-60 cell differentiation (NBT-reducing activity) induced by 1α,25-dihydroxyvitamin D3. In kind it is cell-based. The conditions noted are these: simultaneous treatment with 1α,25-dihydroxyvitamin D3 1×10^−8 M; compound 1×10^−7 to 3×10^−6 M; 4 days; read-out: IC50 (suppression of NBT-reducing activity induction). The source says:
(1) HL-60 cell line which had been purchased from a cell bank (Japanese Cancer Research Resource Bank, Cell No: JCRB0085) was used. The cell line was stored as a frozen storage stock to prevent cell characteristic changes attributable to successive cultivations. Prior to the initiation of experiments, the cells were defrosted and successive culturing was stared. For the experiments, cells whose successive culturing was from one month to about a half year were used. The successive culturing was carried out by centrifugally collecting cells which were in the state of suspension culture, and diluting the collected cell concentrate with a fresh culture medium at a ratio of about 1/100 (1-2×10^4 cells/ml). As the culture medium, an RPMI-1640 medium containing 10% fetal bovine serum was used.
(2) The cells which were under successive culturing in the above process (1) were centrifugally collected, and they were dispersed in a culture medium at the cell concentration of 2×10^4 cells/ml. […]
(3) As the parameter of differentiation inducing effect on HL-60 cells, the induction of nitro blue tetrazolium (henceforth, NBT)-reducing activity was used. The NBT-reducing activity was determined according to the following procedure. […] After air drying, it was stained with Kernechrot, and the ratio of the positive cells of NBT reduction activity was determined under an optical microscope. […]

Consider `C=C1C(=CC=C2CCCC3(C)C2CCC3C(C)CC2CC(C)(O)C(=O)N2CCc2ccccc2)CC(O)CC1O` (stereo not drawn) [Compound No. 61a, 1α,25-dihydroxyvitamin D3-26,23-lactam-N-(2-phenethyl)], for which the IC50 was under 100 nM.

In general, IC50 refers to the concentration that gives 50% inhibition.
